Test results from paper PMC3170320, “Minimal Antizyme Peptide Fully Functioning in the Binding and Inhibition of Ornithine Decarboxylase and Antizyme Inhibitor” (PLoS ONE, 2011).
“Also recorded” adds a separate entry of the source.

Columns and labels:
human ODC [1] = assay: ODC enzyme activity inhibition by AZ peptides (without AZI); assay type: biochemical; conditions: for IC50 (AZ peptide)/IC50 (AZ_WT): ratio to AZ_WT; for IC50: ODC fixed at 20 µg/mL (0.19 µM), CO2-L3K coupled assay, 405 nm, 37°C, 30 mM Tris-HCl pH 7.8, 10 mM ornithine, 0.2 mM PLP, fit of inhibition curves; for ODC inhibition ability (in words): relative ODC activity, Figure 2
Description: Figure 2 Relative ODC enzyme activity in the presence of AZ peptides. The activity of ODC was inhibited by various concentrations of AZ peptides. ODC concentrations were fixed at 20 µg/mL (0.19 µM). The IC50 values of AZ peptides shown in Table 1 were derived from fitting these inhibition curves. The molar ratio refers to AZ peptide versus ODC monomer.
(§1) The ODC enzyme activity was determined using a CO2-L3K assay kit (DCL, Charlottetown, Canada) at 37°C. The continuous measurement of ODC enzyme activity was coupled to the carboxylation of PEP to oxaloacetate and the oxidation of oxaloacetate to malate, as previously reported. The reaction mixture contains 30 mM Tris-HCl at pH 7.8, 10 mM ornithine, 0.2 mM […] and 0.4 ml of the CO2-L3K assay kit solution, which contains 12.5 mM PEP, >0.4 U/ml phosphoenolpyruvate carboxylase (microbial), >4.1 U/ml malate dehydrogenase (mammalian) and 0.6 mM NADH analog in a final volume of 0.5 ml.
For the AZ inhibition experiment, the ODC enzyme (0.19 µM) and various amounts of AZ were added to the reaction mixture. The reaction was started after the ODC was added, and the absorbance decrease at 405 nm was continuously traced using a Perkin-Elmer Lamba-25 spectrophotometer. In this coupled reaction, the production of 1 mol of CO2 was concomitant with the oxidation of 1 mol of NADH analog. An extinction coefficient of 2410 M ^−1 was used for the NADH analog in the calculations.
(§2) To evaluate the inhibitory effect of AZ, the inhibited ODC enzyme activity versus [AZ] was fitted with the following equation to estimate the IC50 value: [drawing 1] where A and B are the minimum and maximum ODC enzyme activity, respectively, and the Hill slope gives the largest slope of the curve. The IC50 value represents the concentration of AZ required for 50% inhibition of ODC enzyme activity. All of the calculations were done using the SigmaPlot 10.0 software program (Jandel, San Rafael, CA).

[2] = molecular target: human ODC (equilibrated with equimolar AZI); assay: ODC enzyme activity inhibition by AZ peptides in the presence of AZI; assay type: biochemical; conditions: for IC50 (with AZI)/IC50 (without AZI): ratio with/without equimolar AZI
Description: AZ has a greater affinity for AZI than ODC, such that the formation of an AZ-AZI heterodimer will release the ODC monomer from an AZ-ODC complex and rapidly restore ODC enzyme activity. Here, we examined the inhibition of ODC enzyme activity by AZ peptides in the presence of AZI. The ODC enzyme was first pre-incubated with AZI, keeping the molar ratio of AZI monomer/ODC monomer at unity. […] Table 1 illustrates the IC50 values of the AZ peptides in the presence of AZI, showing that all of the IC50 values for the AZ peptides with AZI were larger than the values without AZI.
Figure 4 Relative ODC enzyme activities in the presence of AZ and AZI. ODC enzymes equilibrated with equimolar AZI were inhibited by various concentrations of AZ peptides. The concentrations of AZI and ODC were fixed at 18.9 µg/mL and 20 µg/mL, respectively (the ratio of AZI monomer versus ODC monomer was fixed at 1). Panels A–H show the inhibition curves of ODC for each AZ peptide in the absence (closed circles) and in the presence (open circles) of AZI.
as §1, §2

human ODC [3] = assay: AZ peptide-ODC complex size distribution by analytical ultracentrifugation; assay type: binding; conditions: for K d,AZ-ODC fold higher than that of AZ_WT: ratio to AZ_WT
Description: AZ binds ODC, dissociates the ODC dimer and then inactivates the enzyme, [20]. […] In order to determine the differential binding affinity of these AZ peptides toward ODC, the size distributions of ODC with different concentrations of AZ peptides were analyzed. All sedimentation data were globally fitted with the AB hetero-association model in the SEDPHAT program to obtain the dissociation constant (K d) between ODC and AZ (Figure 3 and Table 2).
Figure 3 Continuous sedimentation coefficient distribution of human ODC in the presence of AZ peptide. The concentration of ODC was fixed at 0.3 mg/mL with concentrations of AZ ranging from 0.015 to 0.2 mg/mL (the molar ratio of AZ/ODC ranged from 0.12 to 2) in a buffer of 30 mM Tris-HCl (pH 7.4) and 25 mM NaCl at 20°C. The sedimentation velocity data were globally fitted with the SEDTHAT program to obtain K d values for the AZ peptide-ODC complex (Table 2).
A Beckman Optima XL-A analytical ultracentrifuge was used for sedimentation velocity experiments. Reference and sample sectors in the centerpiece were filled with buffer (400 µl) and sample protein (0.3 mg/mL, 380 µl), respectively, and then the cell was built up in an An-50 Ti rotor. Sedimentation velocity experiments were performed at 20°C with a rotor speed of 42,000 rpm. The data were traced by absorbance at 280 nm in continuous mode, with a time interval of 420 s and a step size of 0.002 cm. A total of 20–30 scans at different time points were collected and fitted to a continuous size distribution model using the program SEDFIT [54]–[55]. All size distributions were calculated at 0.1 to 20 S with a confidence level of p = 0.95 and a resolution N of 200.
In order to determine the dissociation constants (K d) of the AZ peptide-ODC and AZ peptide-AZI complexes, sedimentation velocity experiments were performed at different concentrations of AZ or AZ peptide with a constant concentration of human ODC or AZI. The K d values of the AZ peptide-ODC and AZ peptide-AZI complexes were calculated by a global fitting of all sedimentation data in the AB hetero-association model in the SEDPHAT program [56]–[57]. The partial specific volumes of the proteins, the solvent densities, and the viscosity were calculated by the SEDNTERP program.

| IC50 (AZ peptide)/IC50 (AZ_WT) (human ODC [1]) | IC50 (with AZI)/IC50 (without AZI) [2] | IC50 (human ODC [1]) | Inhibition of ODC with AZI relative to AZ_WT or to without AZI (in words) ([2]; equimolar AZI, Figure 4) | Substance | ODC inhibition ability (in words) (human ODC [1]) | K d,AZ-ODC fold higher than that of AZ_WT (human ODC [3]) | Size distribution of ODC in the presence of AZ (in words) (human ODC [3]; sedimentation velocity, 20°C, Figure 3) |
| --- | --- | --- | --- | --- | --- | --- | --- |
| 3.2 | 3.0 |  |  | AZ_87-124: truncated human AZ protein, residues 87-124 |  |  |  |
| 1.1 |  | 170 nM |  | AZ_87-228: truncated human AZ protein, residues 87-228 |  |  |  |
| 4.0 | 3.0 |  |  | AZ_95-124: truncated human AZ protein, residues 95-124 |  |  |  |
| 3.2 | 3.1 |  |  | AZ_95-135: truncated human AZ protein, residues 95-135 |  |  |  |
| 2.3 |  | 370 nM |  | AZ_95-169: truncated human AZ protein, lacking β-strand 6, residues 95-169 | displayed a noteworthy decrease in ODC inhibition ability |  |  |
| 1.2 | 3.4 |  |  | AZ_95-176: minimal AZ peptide fully functioning in the binding of ODC and AZI, residues 95-176 | retained most of the inhibition ability | 7.8 fold |  |
| 1.0 | 3.5 |  |  | AZ_95-228: truncated human AZ protein, residues 95-228 | also similar to that of AZ_WT | 2.1 fold |  |
| 5.0 |  | 820 nM |  | AZ_100-124: truncated human AZ protein, residues 100-124 | notably weaker inhibition ability than AZ_100-228 |  |  |
| 5.3 |  | 860 nM |  | AZ_100-135: truncated human AZ protein, residues 100-135 | notably weaker inhibition ability than AZ_100-228 |  |  |
| 2.6 | 3.3 |  |  | AZ_100-176: truncated human AZ protein, residues 100-176 | had a lower inhibition ability than that of AZ_100-228; also recorded: not as good as that of AZ_95-176 or AZ_100-228 |  |  |
| 1.3 | 3.0 |  |  | AZ_100-228: truncated human AZ protein, residues 100-228 |  | 7.5 fold |  |
| 2.3 |  | 370 nM |  | AZ_106-228: truncated human AZ protein, residues 106-228 | weaker inhibition ability than AZ_100-228 |  |  |
| 6.0 |  | 970 nM |  | AZ_114-228: truncated human AZ protein, residues 114-228 |  |  |  |
| 7.3 |  | 1190 nM |  | AZ_126-228: truncated human AZ protein, residues 126-228 |  |  |  |
|  |  |  |  | AZ_152-228: truncated human AZ protein, residues 152-228 | almost no ODC inhibition, even at high concentrations of AZ |  |  |
|  |  |  |  | AZ_177-228: truncated human AZ protein, residues 177-228 (HKNREDRAALLRTFSFLGFEIVRPGHPLVPKRPDACFMAYTFERESSGEEEE; UniProt P54368 177-228, looked up, fragment) | almost no ODC inhibition, even at high concentrations of AZ; also recorded: displays no inhibition of ODC activity |  |  |
| 1.0 | 3.1 |  | lower than in the absence of AZI | Antizyme [AZ_WT] |  |  | disrupted dimeric ODC to form AZ-ODC complexes |
